From patent EP3042903B1, “Substituted hetero-bicyclic compounds, compositions and medicinal applications thereof” (Impetis Biosciences Ltd., priority 2015, dated 2016)

Tests used:
[1] = tested on: B cell activation as measured by CD69 expression in Human whole blood; assay: Inhibition of B cell activation as measured by CD69 expression in Human whole blood (flow cytometry); format: cell-based; conditions: heparinized human whole blood, anti-IgD antibody 30 µg/mL, 4 hours, CD69 positive cells among CD20 B cells
Procedure: Inhibition of B cell activation as measured by CD69 expression in Human whole blood
To test the effect of BTK inhibitors in suppressing B-cell receptor (BCR) mediated activation of B cells, we developed a flow cytometry based assay to analyze CD69 expression in B cell population in human whole blood. Freshly collected heparinized human whole blood (60 µL/well) was dispensed in 96-well U bottom plate (Greiner), treated with the test compound at a concentrations ranging from 10 µM to 0.3 nM (half log dilutions). 0.5% DMSO (Sigma, cat#D2650) was used as vehicle control. The whole blood was incubated with compounds for 1 hour, followed by stimulation with anti-IgD antibody (Goat Anti-Human IgD Antibody - affinity purified, Bethyl laboratories, cat#A80-106A) at a final concentration of 30 µg/mL at 37°C and 5% CO2 for 4 hours. Subsequently, 45 µL blood was transferred to 1.5 ml microcentrifuge tubes and 1.2 µL of anti-CD20-PE.Cy5 (BD Biosciences, cat#561761)and 1.6 µL of anti-CD69-PE (eBioscience, cat#12-0691-83) antibody were added and mixed properly by gently tapping the tubes. Blood was stained for 20 minutes at room temperature (RT). After antibody incubation, 1 mL pre-warmed 1X Lyse/Fix solution (BD Biosciences, cat#558049) was added and cells were incubated at RT for 10 minutes. Then the tubes were centrifuged at 450xg for 5 minutes at RT and supernatant was removed. Pellet was disrupted by gentle tapping, cells were washed with 1 mL freshly prepared wash buffer and centrifuged at 450xg for 5 minutes at RT. Supernatant was removed completely before resuspending cells in 200 µl of wash buffer and proceeded for acquisition in Guava Easy Cyte Mini instrument. Acquisition was done with following laser settings: FSC Gain: X 16, FSC fine gain 100%, SSC: 893V, GRN: 663V, YLW: 649V, RED: 802V, Threshold Parameters Offset: FSC 0.73 V Threshold 300 units. The cells were diluted in such a way so that cell conc. should not exceed 500 cells/µL and at least 5000 cells were acquired. Viable lymphocytes were gated from the forward and side scatter profile of cells and B cells were sub-gated based on CD20-PE.Cy5 staining. Percent of CD69-PE positive cells were calculated among B lymphocyte sub-gate using Weasel software. Percent activity for each data point was calculated using following formula: [formula]
(§1) Percentage activity was fit using sigmoid dose response with variable slope logistic equation in GraphPad Prism 5 software to determine IC50.

[2] = tested on: B cell activation as measured by CD69 expression in mouse splenocytes; assay: Inhibition of B cell activation as measured by CD69 expression in mouse splenocytes (flow cytometry); format: cell-based; conditions: C57/BL6 splenocytes, 3 µg/mL goat anti-mouse IgM, 18-20 hours, CD69 +ve cells within CD19; read-out: IC50 (nM) in B cell activation assay in Mouse spleenocytes
From the text: Inhibition of B cell activation as measured by CD69 expression in mouse splenocytes:
To test the effect of BTK inhibitors in suppressing B-cell receptor (BCR) mediated activation of B cells, we developed a flow cytometry based assay to analyze CD69 expression in B cell population among total splenocyte from the mouse. C57/BL6 mouse spleens were dissected out and splenocytes were isolated by mincing the tissue with a syringe plunger followed by RBC lysis (0.85% ammonium chloride, (Qualigens,Cat #21405) and several washes in PBS. Finally, cell were cultured in culture medium [RPMI medium (Sigma, Cat R6504) with 10% FBS (Gibco - Cat #10270).
Test compounds were diluted half log starting from 2 mM in 100% DMSO (Sigma, cat#D2650) (200X). 1x10^5 splenocytes were incubated with 1 µL of diluted test compounds in 200 µL culture medium in a U-bottom 96 well plate (Greiner) at 37°C with 5% CO2 for 30 minutes. Control wells received 1 µL of 100% DMSO without any compound. The cells were stimulated with 3 µg/mL goat anti-mouse IgM (Sigma, cat#M8644) and incubated for 18-20 hours. After the stimulation, cells were washed in cold PBS with 1% FBS and stained with 1:100 dilution of anti-CD69-PE (eBioscience, cat#12-0691-83) and anti-CD19-PE.Cy5 (eBioscience, cat#15-0193-83) for 1 hour on ice. Then the cells were washed 3 times with PBS with 1% FBS and analyzed by Guava Easycyte Mini flow cytometer system (Millipore). Flow cytometry data were analyzed using Weasel software (WEHI, Melbourne). B cells were gated using CD19 marker. Expression of CD69 was analyzed as percentage of CD69 +ve cells within CD19. Percent activity for each data point was calculated using following formula: [formula]
as §1

[3] = biological target: T1, Recombinant Human Bruton's tyrosine kinase (Btk) (Homo sapiens, UniProt Q06187); assay: Recombinant Human Bruton's tyrosine kinase (Btk) inhibition assay (HTRF KinEASE-TK); format: biochemical; conditions: 20 ng/ml rhBtk, 77 µM ATP (KM), 1 µM TK-Biotin Substrate, 90 minutes; read-out: IC50 (nM) in recombinant hBTK assay
T1 construct: Full length human BTK (hBTK, Genbank#NM_000061.2) was cloned into pFastBac-HTB vector; 6XHis (N); made in house; host or cells: Sf9 cells (Bac-to-Bac baculovirus expression system)
Procedure: Recombinant Human Bruton's tyrosine kinase (Btk) inhibition assay.
Full length human BTK (hBTK, Genbank#NM_000061.2) was cloned into pFastBac-HTB vector (Invitrogen, cat#10359-016). hBTK gene was expressed with N'-terminal 6XHis tag in Sf9 cells using Bac-to-Bac ^(R) Baculovirus expression system (Invitrogen, cat#10359-016) and the recombinant protein was purified by Ni-NTA method. The elution buffer for hBTK consisted of 50 mM Hepes pH 8.0, 300 mM NaCl, 10% glycerol, 1 mM dithiothreitol and 200 mM imidazole.
The inhibition assays were performed using the generic tyrosine kinase assay kit from Cis Bio (HTRF® KinEASE - TK™ # 62TK0PEB). The assay is based on the principle of fluorescence resonance energy transfer (FRET) between the Europium Cryptate labeled anti-phosphotyrosine antibody and streptavidin labeled fluorophore, XL-665. In an uninhibited kinase reaction the biotinylated peptide substrate (Tk-Biotin) gets phosphorylated at an intermediate tyrosine site which is captured by anti-phosphotyrosine antibody which eventually acts as a FRET donor. The streptavidin labeled XL-665 binds strongly to the Tk-Biotin substrate and act as a FRET acceptor. The resultant FRET signal is measured at 665 nm. A ratio of this specific fluorescence (665nm) to the background fluorescence (620nm), conferred by the free antibody, is directly proportional to the kinase activity.
The Btk inhibition assays were performed using 20 ng/ml of rhBtk in a final volume of 10µl reaction buffer containing 77 µM ATP and 1 µM TK-Biotin Substrate in 50 mM HEPES pH 7.0, 5mM MgCl2, 1mM DTT, 0.01% Tween 20 and 50nM SEB®; with a range of concentrations of the inhibitors. The kinase reaction was carried out at the KM of ATP (77 µM) as well as that of Tk-Biotin substrate (1 µM). After 90 minutes, the reaction was stopped by addition of SA-XL665 at a concentration of 62.5 nM in HTRF® detection buffer containing EDTA. Finally 5 µL of TK antibody-cryptate was added to the reaction and the plate was incubated for additional 60 minutes. The fluorescence was read using the FlexStation (Molecular Devices) with excitation at 340 nm and emissions at 620nm (for Cryptate) and 665nm (for FRET). A ratio of the 2 emissions was calculated for each well and expressed as follows: Specific signal = Ratio(Sample)−Ratio(Negative) [formula] Ratio = (665nm/620nm) × 10^4 [formula] Mean Ratio = ∑Ratio/3(triplicates) [formula]
For each data point, % inhibition is calculated based on uninhibited reaction which is considered as 100% activity over no enzyme or substrate controls. Dose response data is then fit using a four parameter logistic equation using GraphPad Prism 5 software to determine inhibition constant 50(IC50).

T1 sequence (Q06187 whole entry): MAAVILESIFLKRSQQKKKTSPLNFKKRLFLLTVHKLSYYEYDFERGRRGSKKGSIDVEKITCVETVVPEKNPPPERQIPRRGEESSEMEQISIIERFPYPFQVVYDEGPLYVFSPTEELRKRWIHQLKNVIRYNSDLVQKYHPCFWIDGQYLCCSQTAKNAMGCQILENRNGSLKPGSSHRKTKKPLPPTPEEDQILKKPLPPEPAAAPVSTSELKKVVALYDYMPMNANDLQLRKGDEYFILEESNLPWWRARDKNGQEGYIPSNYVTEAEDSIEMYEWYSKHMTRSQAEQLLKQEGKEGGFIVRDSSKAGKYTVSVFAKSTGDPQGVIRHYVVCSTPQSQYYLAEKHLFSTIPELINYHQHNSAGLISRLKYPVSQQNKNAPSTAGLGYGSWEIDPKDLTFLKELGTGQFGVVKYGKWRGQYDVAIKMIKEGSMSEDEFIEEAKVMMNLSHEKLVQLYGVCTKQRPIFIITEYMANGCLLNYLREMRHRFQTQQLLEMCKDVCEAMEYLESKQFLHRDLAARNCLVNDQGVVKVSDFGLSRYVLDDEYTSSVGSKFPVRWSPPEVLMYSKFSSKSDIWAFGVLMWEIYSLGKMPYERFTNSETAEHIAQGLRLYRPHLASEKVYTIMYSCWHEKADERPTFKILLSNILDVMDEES

Structure (SMILES)	IC50 [1] [nM]	IC50 [2] [nM]	IC50 [3] [nM]
O=C1c2c(F)cc(C3CC3)cc2OCCN1c1cc(F)cc(-c2ccnc3[nH]c(-c4ccc(CN5CCN(C6COC6)CC5)cn4)cc23)c1CO [Example 1, 8-cyclopropyl-6-fluoro-4-[5-fluoro-2-(hydroxymethyl)-3-[2-[5-[[4-(oxetan-3-yl)piperazin-1-yl]methyl]-2-pyridyl]-1H-pyrrolo[2,3-b]pyridin-4-yl]phenyl]-2,3-dihydro-1,4-benzoxazepin-5-one]	16.5	2.7	–
C[C@H]1CN(Cc2ccc(-c3cc4c(-c5cc(F)cc(N6CCOc7cc(C8CC8)cc(F)c7C6=O)c5CO)ccnc4[nH]3)nc2)CCN1CC(F)F [Example 5, 8-cyclopropyl-4-[3-[2-[5-[[(3S)-4-(2,2-difluoroethyl)-3-methyl-piperazin-1-yl]methyl]-2-pyridyl]-1H-pyrrolo[2,3-b]pyridin-4-yl]-5-fluoro-2-(hydroxymethyl)phenyl]-6-fluoro-2,3-dihydro-1,4-benzoxazepin-5-one]	–	–	3
C[C@H]1CN(CC(F)F)CCN1Cc1ccc(-c2cc3c(-c4cc(F)cc(N5CCOc6cc(C7CC7)cc(F)c6C5=O)c4CO)ccnc3[nH]2)nc1 [Example 6, 8-cyclopropyl-4-[3-[2-[5-[[(2S)-4-(2,2-difluoroethyl)-2-methyl-piperazin-1-yl]methyl]-2-pyridyl]-1H-pyrrolo[2,3-b]pyridin-4-yl]-5-fluoro-2-(hydroxymethyl)phenyl]-6-fluoro-2,3-dihydro-1,4-benzoxazepin-5-one]	–	–	2.7
O=C1c2ccc(C3CC3)cc2OCCN1c1cc(F)cc(-c2ccnc3[nH]c(C4=CCN(C5COC5)CC4)cc23)c1CO [Example 9, 8-cyclopropyl-4-[5-fluoro-2-(hydroxymethyl)-3-[2-[1-(oxetan-3-yl)-3,6-dihydro-2H-pyridin-4-yl]-1H-pyrrolo[2,3-b]pyridin-4-yl]phenyl]-2,3-dihydro-1,4-benzoxazepin-5-one]	–	47	2.5
CC(C)(O)CN1CC=C(c2cc3c(-c4cc(F)cc(N5CCOc6cc(C7CC7)ccc6C5=O)c4CO)ccnc3[nH]2)CC1 [Example 10, 8-cyclopropyl-4-[5-fluoro-2-(hydroxymethyl)-3-[2-[1-(2-hydroxy-2-methyl-propyl)-3,6-dihydro-2H-pyridin-4-yl]-1H-pyrrolo[2,3-b]pyridin-4-yl]phenyl]-2,3-dihydro-1,4-benzoxazepin-5-one]	–	27	4

Next, values leading:

IC50 [1] [nM]	IC50 [2] [nM]	IC50 [3] [nM]	Structure (SMILES)
55.9	2.7	1.9	O=C1c2c(F)cc(C3CC3)cc2OCCN1c1cc(F)cc(-c2ccnc3[nH]c(-c4ccc(CN5CCN(CC(F)(F)F)CC5)cn4)cc23)c1CO [Example 2]
54.2	2.4	0.65	O=C1c2c(F)cc(C3CC3)cc2OCCN1c1cc(F)cc(-c2ccnc3[nH]c(-c4ccc(CN5CCN(CC(F)F)CC5)cn4)cc23)c1CO [Example 3, 8-cyclopropyl-4-[3-[2-[5-[[4-(2,2-difluoroethyl)piperazin-1-yl]methyl]-2-pyridyl]-1H-pyrrolo[2,3-b]pyridin-4-yl]-5-fluoro-2-(hydroxymethyl)phenyl]-6-fluoro-2,3-dihydro-1,4-benzoxazepin-5-one]
–	–	0.55	O=C1c2c(F)cc(C3CC3)cc2OCCN1c1cc(F)cc(-c2ccnc3[nH]c(-c4ccc(CN5CCOCC5)cn4)cc23)c1CO [Example 4, 8-cyclopropyl-6-fluoro-4-[5-fluoro-2-(hydroxymethyl)-3-[2-[5-(morpholinomethyl)-2-pyridyl]-1H-pyrrolo[2,3-b]pyridin-4-yl]phenyl]-2,3-dihydro-1,4-benzoxazepin-5-one]
–	–	1.8	C[C@@H]1CN(Cc2ccc(-c3cc4c(-c5cc(F)cc(N6CCOc7cc(C8CC8)cc(F)c7C6=O)c5CO)ccnc4[nH]3)nc2)CCN1CC(F)F [Example 7, 8-cyclopropyl-4-[3-[2-[5-[[(3R)-4-(2,2-difluoroethyl)-3-methyl-piperazin-1-yl]methyl]-2-pyridyl]-1H-pyrrolo[2,3-b]pyridin-4-yl]-5-fluoro-2-(hydroxymethyl)phenyl]-6-fluoro-2,3-dihydro-1,4-benzoxazepin-5-one]
–	–	1.15	O=C1c2c(F)cc(C3CC3)cc2OCCN1c1cc(F)cc(-c2ccnc3[nH]c(-c4ccc(OC5CCN(C6COC6)CC5)cn4)cc23)c1CO [Example 11, 8-cyclopropyl-6-fluoro-4-[5-fluoro-2-(hydroxymethyl)-3-[2-[5-[[1-(oxetan-3-yl)-4-piperidyl]oxy]-2-pyridyl]-1H-pyrrolo[2,3-b]pyridin-4-yl]phenyl]-2,3-dihydro-1,4-benzoxazepin-5-one]
